Test results as given in ChEMBL document CHEMBL3045663, “Synthesis and Activity of Novel Acaricidal/Insecticidal 2, 4-Diphenyl-1, 3-oxazolines” (J Pestic Sci, 2002).
Values after ≈ are worked out from the molar mass of the structure shown.

Key:
Type in all cases: functional
Myzus persicae = test: Insecticidal activity against Myzus persicae (green peach aphid) in compound treated radish leaf assessed as mortality at 500 ppm
Nephotettix cincticeps = test: Insecticidal activity against Nephotettix cincticeps (green rice leafhopper) in compound treated rice seedlings assessed as mortality at 500 ppm
Plutella xylostella = test: Insecticidal activity against Plutella xylostella (diamondback moth) in compound treated radish leaf assessed as mortality at 500 ppm
Tetranychus urticae [1] = test: Acaricidal activity against Tetranychus urticae (two-spotted spider mite) in compound treated kidney bean leaf assessed as mortality of egg at 1000 ppm at 24 degC measured after 1 week; conditions: 168 h
Tetranychus urticae [2] = test: Acaricidal activity against Tetranychus urticae (two-spotted spider mite) in compound treated kidney bean leaf assessed as larvicidal activity

Row | SMILES | mortality at 500 ppm (Myzus persicae) | mortality at 500 ppm (Nephotettix cincticeps) | mortality at 500 ppm (Plutella xylostella) | mortality at 1000 ppm (Tetranychus urticae [1]) | LC50 (Tetranychus urticae [2])
1 | Clc1ccc(C2=NC(c3ccccc3)CO2)cc1 (configuration not stated) | 0% | 0% | 60% | 0% | 100 µg/mL (≈ 388 µM)
2 | Fc1cccc(Cl)c1C1=NC(c2ccccc2)CO1 (configuration not stated) | 10% | 35% | 0% | 0% | 0.01 µg/mL (≈ 0.0363 µM)
3 | Cc1cccc(C2=NC(c3ccccc3)CO2)c1 (configuration not stated) | 0% | 10% | 0% | 0% | > 1000 µg/mL
4 | Clc1cccc(C2=NC(c3ccccc3)CO2)c1Cl (configuration not stated) | 0% | 0% | 0% | 0% | 10 µg/mL (≈ 34.2 µM)
5 | COc1ccc(C2=NC(c3ccccc3)CO2)cc1 (configuration not stated) | 0% | 10% | 0% | 0% | 100 µg/mL (≈ 395 µM)
6 | Clc1cccc(C2=NC(c3ccccc3)CO2)c1 (configuration not stated) | 0% | 0% | 60% | 10% | 100 µg/mL (≈ 388 µM)
7 | Ic1ccccc1C1=NC(c2ccccc2)CO1 (configuration not stated) | 0% | 0% | 35% | 10% | 1 µg/mL (≈ 2.86 µM)
8 | Cc1ccc(C2=NC(c3ccccc3)CO2)cc1 (configuration not stated) | 0% | 0% | 0% | 0% | > 1000 µg/mL
9 | CCOc1cccc(C2COC(c3c(F)cccc3F)=N2)c1 (configuration not stated) | 0% | 0% | 0% |  | 1 µg/mL (≈ 3.3 µM)
10 | Fc1cccc(F)c1C1=NCC(c2ccccc2)O1 (configuration not stated) | 85% | 10% | 35% | 0% | 1 µg/mL (≈ 3.86 µM)
11 | CC1(c2ccccc2)COC(c2c(F)cccc2F)=N1 (configuration not stated) | 0% | 0% | 0% | 0% | 100 µg/mL (≈ 366 µM)
12 | Fc1cccc(F)c1-c1nc(-c2ccccc2)co1 | 0% | 10% | 0% | 0% | 100 µg/mL (≈ 389 µM)
13 | Fc1cccc(F)c1-c1ncc(-c2ccccc2)o1 | 0% | 0% | 0% | 0% | 100 µg/mL (≈ 389 µM)
14 | Fc1cccc(F)c1C1=NC(c2ccccc2)CS1 (configuration not stated) | 0% | 0% | 0% | 0% | 10 µg/mL (≈ 36.3 µM)
15 | Fc1cccc(F)c1C1=NCC(c2ccccc2)S1 (configuration not stated) | 0% | 0% | 0% | 0% | 100 µg/mL (≈ 363 µM)
16 | CCc1ccc(C2COC(c3c(F)cccc3F)=N2)cc1 (configuration not stated) | 100% | 60% | 0% |  | 0.001 µg/mL (≈ 0.00348 µM)
17 | COc1ccc(C2COC(c3c(F)cccc3F)=N2)cc1 (configuration not stated) | 85% | 10% | 0% |  | 1 µg/mL (≈ 3.46 µM)
18 | CCOc1ccc(C2COC(c3c(F)cccc3F)=N2)cc1 (configuration not stated) | 100% | 0% | 35% |  | 0.001 µg/mL (≈ 0.0033 µM)
19 | Fc1ccc(C2COC(c3c(F)cccc3F)=N2)cc1 (configuration not stated) | 85% | 10% | 85% |  | 0.1 µg/mL (≈ 0.361 µM)
20 | Fc1cccc(F)c1C1=NC(c2ccc(Cl)cc2)CO1 (configuration not stated) | 0% | 60% | 0% |  | 0.001 µg/mL (≈ 0.0034 µM)
21 | CC(C)c1ccc(C2COC(c3c(F)cccc3F)=N2)cc1 (configuration not stated) | 100% | 60% | 0% |  | 0.001 µg/mL (≈ 0.00332 µM)
22 | CCCCc1ccc(C2COC(c3c(F)cccc3F)=N2)cc1 (configuration not stated) | 100% | 10% | 0% |  | < 0.001 µg/mL
23 | CC(C)Cc1ccc(C2COC(c3c(F)cccc3F)=N2)cc1 (configuration not stated) | 100% | 0% | 60% |  | < 0.001 µg/mL
24 | CC(C)(C)c1ccc(C2COC(c3c(F)cccc3F)=N2)cc1 (configuration not stated) | 100% | 60% | 0% |  | < 0.001 µg/mL
25 | CCCCCCc1ccc(C2COC(c3c(F)cccc3F)=N2)cc1 (configuration not stated) | 100% | 0% | 10% |  | < 0.001 µg/mL
26 | CCCCCCCCc1ccc(C2COC(c3c(F)cccc3F)=N2)cc1 (configuration not stated) | 100% | 0% | 85% |  | < 0.001 µg/mL
27 | CCCCCCCCCCc1ccc(C2COC(c3c(F)cccc3F)=N2)cc1 (configuration not stated) | 85% | 0% | 100% |  | < 0.001 µg/mL

Row | SMILES | mortality at 500 ppm (Myzus persicae) | mortality at 500 ppm (Nephotettix cincticeps) | mortality at 500 ppm (Plutella xylostella) | mortality at 1000 ppm (Tetranychus urticae [1]) | LC50 (Tetranychus urticae [2])
28 | CCCCCCCCCCCCc1ccc(C2COC(c3c(F)cccc3F)=N2)cc1 (configuration not stated) | 85% | 0% | 100% |  | < 0.001 µg/mL
29 | CCCCCCCCCCCCCCCc1ccc(C2COC(c3c(F)cccc3F)=N2)cc1 (configuration not stated) | 0% | 0% | 85% |  | 0.001 µg/mL (≈ 0.00213 µM)
30 | CC(C)Oc1ccc(C2COC(c3c(F)cccc3F)=N2)cc1 (configuration not stated) | 100% | 0% | 0% |  | 0.001 µg/mL (≈ 0.00315 µM)
31 | CCCCOc1ccc(C2COC(c3c(F)cccc3F)=N2)cc1 (configuration not stated) | 100% | 0% | 0% |  | < 0.001 µg/mL
32 | CCCCCCCCOc1ccc(C2COC(c3c(F)cccc3F)=N2)cc1 (configuration not stated) | 85% | 0% | 60% |  | < 0.001 µg/mL
33 | CCCCCCCCCCOc1ccc(C2COC(c3c(F)cccc3F)=N2)cc1 (configuration not stated) | 100% | 10% | 100% |  | < 0.001 µg/mL
34 | CCCCCCCCCCCCCOc1ccc(C2COC(c3c(F)cccc3F)=N2)cc1 (configuration not stated) | 85% | 0% | 35% |  | 0.001 µg/mL (≈ 0.00219 µM)
35 | Cc1ccccc1C1COC(c2c(F)cccc2F)=N1 (configuration not stated) | 0% | 10% | 0% |  | 10 µg/mL (≈ 36.6 µM)
36 | CCc1ccccc1C1COC(c2c(F)cccc2F)=N1 (configuration not stated) | 0% | 60% | 0% |  | 1 µg/mL (≈ 3.48 µM)
37 | COc1ccccc1C1COC(c2c(F)cccc2F)=N1 (configuration not stated) | 0% | 10% | 0% |  | 10 µg/mL (≈ 34.6 µM)
38 | CCOc1ccccc1C1COC(c2c(F)cccc2F)=N1 (configuration not stated) | 0% | 100% | 10% |  | 10 µg/mL (≈ 33 µM)
39 | Fc1ccccc1C1COC(c2c(F)cccc2F)=N1 (configuration not stated) | 60% | 35% | 10% |  | 1 µg/mL (≈ 3.61 µM)
40 | Fc1cccc(F)c1C1=NC(c2ccccc2Cl)CO1 (configuration not stated) | 100% | 85% | 35% |  | 0.1 µg/mL (≈ 0.34 µM)
41 | Cc1cccc(C2COC(c3c(F)cccc3F)=N2)c1 (configuration not stated) | 0% | 0% | 0% |  | 10 µg/mL (≈ 36.6 µM)
42 | CCc1cccc(C2COC(c3c(F)cccc3F)=N2)c1 (configuration not stated) | 0% | 60% | 0% |  | 10 µg/mL (≈ 34.8 µM)
43 | COc1cccc(C2COC(c3c(F)cccc3F)=N2)c1 (configuration not stated) | 0% | 0% | 0% |  | 1 µg/mL (≈ 3.46 µM)
44 | Fc1cccc(C2COC(c3c(F)cccc3F)=N2)c1 (configuration not stated) | 0% | 60% | 0% |  | 1 µg/mL (≈ 3.61 µM)
45 | Fc1cccc(F)c1C1=NC(c2cccc(Cl)c2)CO1 (configuration not stated) | 0% | 0% | 0% |  | 1 µg/mL (≈ 3.4 µM)
46 | Cc1ccc(C2COC(c3c(F)cccc3F)=N2)cc1 (configuration not stated) | 100% | 60% | 0% |  | 0.1 µg/mL (≈ 0.366 µM)
47 | Clc1cccc(Cl)c1C1=NC(c2ccccc2)CO1 (configuration not stated) | 10% | 0% | 10% | 0% | 1 µg/mL (≈ 3.42 µM)
48 | FC(F)(F)c1ccccc1C1=NC(c2ccccc2)CO1 (configuration not stated) | 10% | 0% | 35% | 0% | 100 µg/mL (≈ 343 µM)
49 | Clc1ccc(C2=NC(c3ccccc3)CO2)c(Cl)c1 (configuration not stated) | 0% | 0% | 10% | 10% | 10 µg/mL (≈ 34.2 µM)
50 | Clc1ccc(Cl)c(C2=NC(c3ccccc3)CO2)c1 (configuration not stated) | 0% | 0% | 35% | 0% | 100 µg/mL (≈ 342 µM)
51 | Fc1cccc(F)c1C1=NC(c2ccccc2)CO1 (configuration not stated) | 100% | 35% | 0% | 0% | 1 µg/mL (≈ 3.86 µM)
52 | COc1cccc(C2=NC(c3ccccc3)CO2)c1 (configuration not stated) | 0% | 0% | 0% | 0% | > 1000 µg/mL
53 | O=[N+]([O-])c1ccccc1C1=NC(c2ccccc2)CO1 (configuration not stated) | 0% | 0% | 0% | 10% | 100 µg/mL (≈ 373 µM)
54 | CCOc1cc(C(C)(C)C)ccc1C1COC(c2c(F)cccc2F)=N1 (configuration not stated) [ETOXAZOLE] | 100% | 100% | 100% |  | 0.001 µg/mL (≈ 0.00278 µM)
